One may read the IC50 as the concentration that inhibits the measured activity by half.

This is an account of results in ChEMBL document CHEMBL3421582, “Quinofuracins A-E, produced by the fungus Staphylotrichum boninense PF1444, show p53-dependent growth suppression” (J Nat Prod, 2015).

Experiment [1] has as its target Cellular tumor antigen p53 (Homo sapiens) (UniProt P04637). Kind of experiment: Induction of p53-dependent growth suppression of human LNZTA3 cells after 72 hrs by MTT assay. Type of experiment: cell-based. Background: Tetrazolium dyes change colour on reduction, which living cells bring about.
The test system of experiment [2] is LNZTA3. Kind of experiment: (§1) Cytotoxicity against p53-deficient human LNZTA3 cells assessed as growth inhibition after 72 hrs by MTT assay. The experiment is classed as functional, cell-based.
For experiment [3], the target named is Cellular tumor antigen p53 (Homo sapiens) (UniProt P04637). Kind of experiment: Induction of wild type p53-dependent growth suppression of human MKN45 cells. Type of experiment: cell-based. To be noted: MKN-45.
Cellular tumor antigen p53 (Homo sapiens), sequence (P04637 whole entry, looked up): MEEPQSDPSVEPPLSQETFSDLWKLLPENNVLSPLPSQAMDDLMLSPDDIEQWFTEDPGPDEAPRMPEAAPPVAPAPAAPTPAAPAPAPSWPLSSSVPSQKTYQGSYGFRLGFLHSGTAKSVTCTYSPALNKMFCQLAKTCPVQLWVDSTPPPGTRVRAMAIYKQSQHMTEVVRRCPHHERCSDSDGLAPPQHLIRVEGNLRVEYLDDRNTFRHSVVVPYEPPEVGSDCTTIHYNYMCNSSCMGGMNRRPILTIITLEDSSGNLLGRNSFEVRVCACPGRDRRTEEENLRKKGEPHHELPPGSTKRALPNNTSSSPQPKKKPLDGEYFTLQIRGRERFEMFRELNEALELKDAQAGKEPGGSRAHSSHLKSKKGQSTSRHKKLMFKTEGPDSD
Experiment [4] shares this target. Kind of experiment: Induction of wild type p53-dependent growth suppression of human RKO cells. The experiment is classed as cell-based.
Experiment [5] has the same target. Kind of experiment: Induction of wild type p53-dependent growth suppression of human HCT116 cells. To be noted: HCT-116. The experiment is classed as cell-based.
The target is the same in experiment [6]. Description: Induction of wild type p53-dependent growth suppression of human MCF7 cells. Type of experiment: cell-based.
Experiment [7] deals with Cellular tumor antigen p53 (Homo sapiens), P04637 [UNDEFINED MUTATION]. Kind of experiment: Induction of p53 mutant-dependent growth suppression of human MKN7 cells. The experiment is classed as cell-based. To be noted: MKN-7.
Cellular tumor antigen p53 (Homo sapiens), P04637 [UNDEFINED MUTATION], sequence (P04637 whole entry, looked up, change not shown): as the sequence (P04637 whole entry, looked up) above
The test system is the same in experiment [8]. Kind of experiment: Induction of p53 mutant-dependent growth suppression of human HCT15 cells. Type of experiment: cell-based. To be noted: HCT-15.
For experiment [9] the test system is unchanged. Kind of experiment: Induction of p53 mutant-dependent growth suppression of human […] cells.
In experiment [10] the test system is LNZTA3. Kind of experiment: Cytotoxicity against p53-deficient human LNZTA3 cells assessed as growth inhibition at >100 uM after 72 hrs by MTT assay. The experiment is classed as functional, cell-based.
Experiment [11] in a line: as §1. The experiment is classed as functional, cell-based. To be noted: LNZTA3, 72 h.

Activity calls are given as the source filed them. No cut-off for these calls is given here.

Turning to `CCCCC[C@H](O)c1c(O[C@@H]2O[C@@H]([C@H](O)CO)[C@H](O)[C@H]2O)cc2c(c1O)C(=O)c1c(O)cc(O)cc1C2=O`, the outcome in experiment [1], in experiment [3], in experiment [4], in [5], in experiment [6] and in experiment [7] was Active. Also, the outcome in [8] and in experiment [9] was Active. Also, the “growth inhibition (GI)” value with LNZTA3 [2] was “Active”.

`O=C1c2cc(O[C@@H]3O[C@@H]([C@H](O)CO)[C@H](O)[C@H]3O)cc(O)c2C(=O)c2c1cc1c(c2O)[C@@H]2CCO[C@@H]2O1`: the outcome in [1], in [3], in experiment [4], in [5], in experiment [6] and in experiment [7] was Active. The outcome in [8] and in experiment [9] was Active. Besides, the “growth inhibition (GI)” value in the experiment with LNZTA3 [2] was “Active”.

As to `CCCCC[C@H](O)c1c(O)cc2c(c1O)C(=O)c1c(O)cc(O)cc1C2=O`, in experiment [1], the result was Active.

For `CC(=O)CCC[C@H](O[C@@H]1O[C@@H]([C@H](O)CO)[C@H](O)[C@H]1O)c1c(O)cc2c(c1O)C(=O)c1c(O)cc(O)cc1C2=O`, the outcome in [1], in experiment [3], in experiment [4], in [5], in [6] and in experiment [7] was Active. Moreover, the outcome in experiment [8] and in experiment [9] was Active. In addition, the “growth inhibition (GI)” value in the experiment with LNZTA3 [10] was “inactive”.

Turning to `CCCCC[C@H](O[C@@H]1O[C@@H]([C@H](O)CO)[C@H](O)[C@H]1OC(C)=O)c1c(O)cc2c(c1O)C(=O)c1c(O)cc(O)cc1C2=O`, in experiment [11], the IC50 stood at 32 µM. Also, the result in experiment [3], in experiment [4], in experiment [5], in experiment [6], in experiment [7] and in experiment [8] was Active. The outcome in [9] was Active.

For `CCCCC[C@H](O[C@@H]1O[C@@H]([C@H](O)CO)[C@H](O)[C@H]1O)c1c(O)cc2c(c1O)C(=O)c1c(O)cc(O)cc1C2=O`, in experiment [11], the IC50 is 32 µM. Further, the outcome in experiment [3], in experiment [4], in experiment [5], in [6], in [7] and in [8] was Active. Moreover, the outcome in experiment [9] was Active.
